Reference: US20150328245A1, “Agents for Eliminating Tumour-Initiating Cells” (priority 2012, published 2015)

Key:
[1] = In vivo maximum tolerated dose assay for compound I-2; set-up: species or system BALB/c mice
Method: In vivo maximum tolerated dose (MTD) toxicity assay was carried out to evaluate the highest dose of a pharmaceutical treatment that will produce the desired effect without unacceptable toxicity. The purpose of administering MTD is to determine whether long-term exposure to a compound might lead to unacceptable adverse health effects in a subject, when the level of exposure is not sufficient to cause premature mortality due to short-term toxic effects.
An exemplary procedure for the in vivo maximum tolerated dose toxicity assay follows. A statistically appropriate number of FEMALE BALB/c MICE were interperitoneally treated with the compound I-2 at three different dose levels 3 mg/kg, 1 mg/kg, and 0.3 mg/kg. Body weight and clinical sign of all the animals were observed daily during dosing and post dosing period.

cancer cell lines = assay: In vitro colorimetric cell death assay (MTT), overall statement; format: cell-based
Method: It's an in vitro colorimetric assay for assessing cell viability where the cells are grown in Two-dimensional surface.
An exemplary procedure for the assay follows. Cancer cells and normal cells were plated in a 96 well plate as per predetermined plating efficiency. The plate was incubated for 24 hours in a 5% CO2 atmosphere at 37 degrees Celsius, a range of concentrations of the compounds I-1, I-2 and I-3 as well as cisplatin (known chemotherapeutic agents) were added to the separate wells, the plate was incubated further for 48 hours in a 5% CO2 atmosphere, the plate was centrifuged twice at 3000 rpm for 3 minutes, the supernatant fluid was discarded, 100 uL of 0.5 mg/mL MTT solution was added and the plate was incubated for 4 hours in a 5% CO2 atmosphere at 37 degrees Celsius. The plate was then centrifuged twice at 3000 rpm for 3 minutes, supernatant, was aspirated very carefully, 200 uL DMSO was added to each well to solubilize MTT crystals and mixed well by shaking the plate, the plate was incubated for 10 minutes in a 5% CO2 atmosphere at 37 degrees Celsius, the plate placed on the shaker of an ELISA plate reader and the absorbance at 570 nm was measured, then the percentage of viable cells remaining was calculated by first subtracting the background absorbance then comparing to the absorbance of a non-drug-treated cell sample, and the results were plotted on a graph to determine the IC50 for the compounds and cisplatin.

COc1cc2c(OC3OCC(OC)C(OC)C3O)c3c(c(-c4ccc5c(c4)OCO5)c2cc1OC)C(=O)OC3 (stereo not drawn) [I-2]
toxicity finding of the given dose ([1]; 0.3 mg/kg q7d×4 i.p.): safe
toxicity finding of the given dose ([1]; 1 mg/kg q7d×4 i.p.): safe
mortality ([1]; 3 mg/kg q7d×4 i.p.): more than one mortality
toxicity finding of the given dose ([1]; 3 mg/kg q7d×4 i.p.): toxic
Mean body weight ([1]; G1 3 mg/kg q7dX4, day 1): 2 g
Mean body weight ([1]; G1 3 mg/kg q7dX4, day 2): 2 g
Mean body weight ([1]; G1 3 mg/kg q7dX4, day 3): 2 g
Mean body weight ([1]; G1 3 mg/kg q7dX4, day 4): 2 g
Mean body weight ([1]; G1 3 mg/kg q7dX4, day 5): 2 g
Mean body weight ([1]; G1 3 mg/kg q7dX4, day 6): 2 g
Mean body weight ([1]; G1 3 mg/kg q7dX4, day 7): 2 g
Mean body weight ([1]; G1 3 mg/kg q7dX4, day 8): 2 g
Mean body weight ([1]; G1 3 mg/kg q7dX4, day 9): 2 g
Mean body weight ([1]; G1 3 mg/kg q7dX4, day 10): 2 g
Mean body weight ([1]; G1 3 mg/kg q7dX4, day 11): 2 g
Mean body weight ([1]; G1 3 mg/kg q7dX4, day 12): 2 g
Mean body weight ([1]; G1 3 mg/kg q7dX4, day 13): 2 g
Mean body weight ([1]; G1 3 mg/kg q7dX4, day 14): 2 g
Mean body weight ([1]; G1 3 mg/kg q7dX4, day 15): 2 g
Mean body weight ([1]; G1 3 mg/kg q7dX4, day 16): 2 g
Mean body weight ([1]; G1 3 mg/kg q7dX4, day 17): 2 g
Mean body weight ([1]; G1 3 mg/kg q7dX4, day 18): 2 g
Mean body weight ([1]; G1 3 mg/kg q7dX4, day 19): 2 g
Mean body weight ([1]; G1 3 mg/kg q7dX4, day 20): 2 g
Mean body weight ([1]; G1 3 mg/kg q7dX4, day 21): 2 g
Mean body weight ([1]; G1 3 mg/kg q7dX4, day 22): 2 g
Mean body weight ([1]; G1 3 mg/kg q7dX4, day 23): 2 g
Mean body weight ([1]; G1 3 mg/kg q7dX4, day 24): 2 g
Mean body weight ([1]; G1 3 mg/kg q7dX4, day 25): 2 g
Mean body weight ([1]; G1 3 mg/kg q7dX4, day 26): 2 g
Mean body weight ([1]; G1 3 mg/kg q7dX4, day 27): 2 g
Mean body weight ([1]; G1 3 mg/kg q7dX4, day 28): 2 g
Mean body weight ([1]; G1 3 mg/kg q7dX4, day 29): 2 g
Mean body weight ([1]; G2 1 mg/kg q7dX4, day 1): 23. g
Mean body weight ([1]; G2 1 mg/kg q7dX4, day 2): 23. g
Mean body weight ([1]; G2 1 mg/kg q7dX4, day 3): 23. g
Mean body weight ([1]; G2 1 mg/kg q7dX4, day 4): 24. g
Mean body weight ([1]; G2 1 mg/kg q7dX4, day 5): 24. g
Mean body weight ([1]; G2 1 mg/kg q7dX4, day 6): 24. g
Mean body weight ([1]; G2 1 mg/kg q7dX4, day 7): 24. g
Mean body weight ([1]; G2 1 mg/kg q7dX4, day 8): 24. g
Mean body weight ([1]; G2 1 mg/kg q7dX4, day 9): 24. g
Mean body weight ([1]; G2 1 mg/kg q7dX4, day 10): 24. g
Mean body weight ([1]; G2 1 mg/kg q7dX4, day 11): 24. g
Mean body weight ([1]; G2 1 mg/kg q7dX4, day 12): 24. g
Mean body weight ([1]; G2 1 mg/kg q7dX4, day 13): 25. g
Mean body weight ([1]; G2 1 mg/kg q7dX4, day 14): 24. g
Mean body weight ([1]; G2 1 mg/kg q7dX4, day 15): 24. g
Mean body weight ([1]; G2 1 mg/kg q7dX4, day 16): 25. g
Mean body weight ([1]; G2 1 mg/kg q7dX4, day 17): 25. g
Mean body weight ([1]; G2 1 mg/kg q7dX4, day 18): 25. g
Mean body weight ([1]; G2 1 mg/kg q7dX4, day 19): 25. g
Mean body weight ([1]; G2 1 mg/kg q7dX4, day 20): 25. g
Mean body weight ([1]; G2 1 mg/kg q7dX4, day 21): 25. g
Mean body weight ([1]; G2 1 mg/kg q7dX4, day 22): 25. g
Mean body weight ([1]; G2 1 mg/kg q7dX4, day 23): 25. g
Mean body weight ([1]; G2 1 mg/kg q7dX4, day 24): 25. g
Mean body weight ([1]; G2 1 mg/kg q7dX4, day 25): 25. g
Mean body weight ([1]; G2 1 mg/kg q7dX4, day 26): 26. g
Mean body weight ([1]; G2 1 mg/kg q7dX4, day 27): 25. g
Mean body weight ([1]; G2 1 mg/kg q7dX4, day 28): 25. g
Mean body weight ([1]; G2 1 mg/kg q7dX4, day 29): 25. g
Mean body weight ([1]; G3 0.3 mg/kg q7dX4, day 1): 2 g
Mean body weight ([1]; G3 0.3 mg/kg q7dX4, day 2): 2 g
Mean body weight ([1]; G3 0.3 mg/kg q7dX4, day 3): 2 g
Mean body weight ([1]; G3 0.3 mg/kg q7dX4, day 4): 2 g
Mean body weight ([1]; G3 0.3 mg/kg q7dX4, day 5): 2 g
Mean body weight ([1]; G3 0.3 mg/kg q7dX4, day 6): 2 g
Mean body weight ([1]; G3 0.3 mg/kg q7dX4, day 7): 2 g
Mean body weight ([1]; G3 0.3 mg/kg q7dX4, day 8): 2 g
Mean body weight ([1]; G3 0.3 mg/kg q7dX4, day 9): 2 g
Mean body weight ([1]; G3 0.3 mg/kg q7dX4, day 10): 2 g
Mean body weight ([1]; G3 0.3 mg/kg q7dX4, day 11): 2 g
Mean body weight ([1]; G3 0.3 mg/kg q7dX4, day 12): 2 g
Mean body weight ([1]; G3 0.3 mg/kg q7dX4, day 13): 2 g
Mean body weight ([1]; G3 0.3 mg/kg q7dX4, day 14): 2 g
Mean body weight ([1]; G3 0.3 mg/kg q7dX4, day 15): 2 g
Mean body weight ([1]; G3 0.3 mg/kg q7dX4, day 16): 2 g
Mean body weight ([1]; G3 0.3 mg/kg q7dX4, day 17): 2 g
Mean body weight ([1]; G3 0.3 mg/kg q7dX4, day 18): 2 g
Mean body weight ([1]; G3 0.3 mg/kg q7dX4, day 19): 2 g
Mean body weight ([1]; G3 0.3 mg/kg q7dX4, day 20): 2 g
Mean body weight ([1]; G3 0.3 mg/kg q7dX4, day 21): 2 g
Mean body weight ([1]; G3 0.3 mg/kg q7dX4, day 22): 2 g
Mean body weight ([1]; G3 0.3 mg/kg q7dX4, day 23): 2 g
Mean body weight ([1]; G3 0.3 mg/kg q7dX4, day 24): 2 g
Mean body weight ([1]; G3 0.3 mg/kg q7dX4, day 25): 2 g
Mean body weight ([1]; G3 0.3 mg/kg q7dX4, day 26): 2 g
Mean body weight ([1]; G3 0.3 mg/kg q7dX4, day 27): 2 g
Mean body weight ([1]; G3 0.3 mg/kg q7dX4, day 28): 2 g
Mean body weight ([1]; G3 0.3 mg/kg q7dX4, day 29): 2 g
body weight / growth pattern ([1]; group G1 3 mg/kg q7d×4): decreased body weight after first treatment then they showed normal growth pattern
Percentage Body weight change ([1]; group G1 3 mg/kg q7d×4, day 2): −3.2%
body weight / growth pattern ([1]; group G2 1 mg/kg q7d×4): normal growth pattern throughout the experimental period
body weight gain compared to other treatment groups ([1]; group G2 1 mg/kg q7d×4): maximum body weight gain
body weight / growth pattern ([1]; group G3 0.3 mg/kg q7d×4): decreased body weight after first treatment then they showed normal growth pattern
body weight gain as compared to group G1 ([1]; group G3 0.3 mg/kg q7d×4): marginal body weight gain
Percentage Body weight change ([1]; group G3 0.3 mg/kg q7d×4, day 3): −3.8%
anticancer activity in cancer cell lines as compared to cisplatin (cancer cell lines): high anticancer activity
